Values joined by “and” are separate entries in the source; they are usually repeats but may differ in a detail not shown here. Equal values may be shown once.
Experiments:
human GPR119 [1] = target: T1, human GPR119 (Homo sapiens, UniProt Q8TDV5); assay: GPR119 radioligand binding assay ([3H]-Compound A or [3H]-Compound B, HEK 293FT membranes); details: Ki from IC50 by Cheng-Prusoff; one value per run; read-out: Human Binding Ki
T1 construct: host or cells: HEK293-CRE-beta-lactamase
T1 sequence (Q8TDV5 1-335): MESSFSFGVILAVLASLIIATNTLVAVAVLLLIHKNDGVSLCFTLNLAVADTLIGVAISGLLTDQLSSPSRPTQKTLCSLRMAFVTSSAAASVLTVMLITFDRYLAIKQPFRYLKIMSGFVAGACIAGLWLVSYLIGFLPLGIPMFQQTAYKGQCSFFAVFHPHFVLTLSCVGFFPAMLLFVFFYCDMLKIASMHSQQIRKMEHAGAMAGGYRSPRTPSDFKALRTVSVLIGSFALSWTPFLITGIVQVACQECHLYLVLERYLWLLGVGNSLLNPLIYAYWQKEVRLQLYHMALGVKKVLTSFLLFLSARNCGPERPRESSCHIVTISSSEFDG
Procedure: Cells were harvested via centrifugation (3,000×g, 10 minutes), washed once on DPBS (minus Ca++/Mg++), resuspended in 0.25M sucrose, 25 mM HEPES, 0.5 mM EDTA, pH 7.4 and frozen at −80 degrees Celsius.
The frozen cells were thawed on ice and centrifuged at 700×g (1400 rpm) for 10 minutes at 4 degrees Celsius. The cell pellet was resuspended in 20 mL phosphate-buffered saline, and centrifuged at 1400 rpm for 10 minutes. […] Cells were then lysed with 15 gentle strokes of a tight-fitting glass Dounce homogenizer. The homogenate was centrifuged at 1000×g (2200 rpm) for 10 minutes at 4 degrees Celsius. The supernatant was transferred into fresh centrifuge tubes on ice. The cell pellet was resuspended in homogenization buffer, and centrifuged again at 1000×g (2200 rpm) for 10 minutes at 4 degrees Celsius after which the supernatant was removed and the pellet resuspended in homogenization buffer. […] The solution was then centrifuged at 25,000×g (15000 rpm) for 20 minutes at 4 degrees Celsius, the supernatant was discarded, and the pellet was resuspended in fresh homogenization buffer (minus Benzonase and MgCl2). After repeating the 25,000×g centrifugation step, the final membrane pellet was resuspended in homogenization buffer and frozen at −80 degrees Celsius.
2 microL of each dilution was added to appropriate wells of a 96-well plate (each concentration in triplicate).
Membranes expressing GPR119 were thawed and diluted to a final concentration of 20 μg/100 microL per well in Binding Buffer, and 100 microL of diluted membranes were added to each well of 96-well plate.
The plate was incubated for 60 minutes w/shaking at room temperature (approximately 25 degrees Celsius). […] Filters were then washed six times using washing buffer (50 mM Tris-HCl, pH 7.5 kept at 4 degrees Celsius). The filter plates were then air-dyed at room temperature overnight.
IC50 determinations were made from competition curves, analyzed with a proprietary curve fitting program (SIGHTS) and a 4-parameter logistic dose response equation. Ki values were calculated from IC50 values, using the Cheng-Prusoff equation.

human GPR119 [2] = target: T1, human GPR119; assay: beta-lactamase reporter functional assay (hGPR119 HEK293-CRE beta-lactamase cells); assay type: cell-based; details: for EC50: read-out: Human B-lactamase Functional EC50; for Emax: read-out: Intrinsic Activity* (B-lactamase)
Procedure: The assay for GPR119 agonists utilizes a cell-based (hGPR119 HEK293-CRE beta-lactamase) reporter construct where agonist activation of human GPR119 is coupled to beta-lactamase production via a cyclic AMP response element (CRE). GPR119 activity is then measured utilizing a FRET-enabled beta-lactamase substrate, CCF4-AM (Live Blazer FRET-B/G Loading kit, Invitrogen cat #K1027). […] After 4 hours the plating medium was removed and replaced with 40 microL of assay medium (Assay medium is plating medium without potassium clavulanate and HIFBS). Varying concentrations of each compound to be tested was then added in a volume of 10 microL (final DMSO≦0.5%) and the cells were incubated for 16 hours at 37 degrees Celsius in a humidified environment containing 5% carbon dioxide. Plates were removed from the incubator and allowed to equilibrate to room temperature for approximately 15 minutes. 10 microL of 6×CCF4/AM working dye solution (prepared according to instructions in the Live Blazer FRET-B/G Loading kit, Invitrogen cat #K1027) was added per well and incubated at room temperature for 2 hours in the dark. Fluorescence was measured on an EnVision fluorimetric plate reader, excitation 405 nm, emission 460 nm/535 nm. EC50 determinations were made from agonist-response curves analyzed with a curve fitting program using a 4-parameter logistic dose-response equation.

human GPR119 [3] = target: T1, human GPR119; assay: cAMP HTRF functional assay (hGPR119 HEK-CRE beta-lactamase cells); assay type: cell-based; details: for Emax: read-out: Intrinsic Activity* (cAMP)
Procedure: GPR119 agonist activity was also determined with a cell-based assay utilizing an HTRF (Homogeneous Time-Resolved Fluorescence) cAMP detection kit (cAMP dynamic 2 Assay Kit; Cis Bio cat #62AM4PEC) that measures cAMP levels in the cell. The method is a competitive immunoassay between native cAMP produced by the cells and the cAMP labeled with the dye d2. The tracer binding is visualized by a Mab anti-cAMP labeled with Cryptate. The specific signal (i.e. energy transfer) is inversely proportional to the concentration of cAMP in either standard or sample.
Following 30 minutes incubation at room temperature, 5 microL of labeled d2 cAMP and 5 microL of anti-cAMP antibody (both diluted 1:20 in cell lysis buffer; as described in the manufacturers assay protocol) were added to each well of the assay plate. […] Raw data were converted to nM cAMP by interpolation from a cAMP standard curve (as described in the manufacturer's assay protocol) and EC50 determinations were made from an agonist-response curves analyzed with a curve fitting program using a 4-parameter logistic dose response equation.

[4] = **curve was extrapolated to 100% to calculate an EC50
[5] = hGPR119 HEK-CRE beta-lactamase cells, HTRF cAMP, one value per run
[6] = percent of maximal activity relative to standard GPR119 agonist (WO2005121121) at 10 μM, one value per run
[7] = hGPR119 HEK293-CRE beta-lactamase cells, one value per run
[8] = percent of maximal activity relative to standard GPR119 agonist (WO2005121121) at 10 microM, one value per run

Compound	Ki (human GPR119 [1])	EC50 (human GPR119 [2]; [4])	Emax (human GPR119 [2]; [4]) [%]	EC50 (human GPR119 [3]; [5])	Emax (human GPR119 [3]; [6]) [%]	EC50 (human GPR119 [3]; [4]) [nM]	Emax (human GPR119 [3]; [4]) [%]	EC50 (human GPR119 [2]; [7])	Emax (human GPR119 [2]; [8]) [%]	Intrinsic Activity* (B-lactamase) (human GPR119 [2]; [8])	Intrinsic Activity* (cAMP) (human GPR119 [3]; [6])	Intrinsic Activity* (B-lactamase) (human GPR119 [2]; percent of maximal activity relative to standard GPR119 agonist (WO2005121121) at 10 microM, one value per run, listed as Exmaple 28) [%]
Cc1ccccc1OCc1cnn(C2CCN(C(=O)OC(C)C)CC2)c1C#N [Example 12, Isopropyl 4-{5-cyano-4-[(2-methylphenoxy)methyl]-1H-pyrazol-1-yl}piperidine-1-carboxylate]	1700 nM	5200 nM	100	> 10000 nM	31							
CC(C)OC(=O)N1CCC(n2ncc(COc3ccc(-c4nnn[nH]4)cc3F)c2C#N)CC1 [Example 19, Isopropyl 4-(5-cyano-4-((2-fluoro-4-(1H-tetrazol-5-yl)phenoxy)methyl)-1H-pyrazol-1-yl)piperidine-1-carboxylate and Isopropyl 4-(5-cyano-4-((2-fluoro-4-(2H-tetrazol-5-yl)phenoxy)methyl)-1H-pyrazol-1-yl)piperidine-1-carboxylate]	> 6100 nM	4000 nM and 4810 nM	100	4550 nM	99	4480	100					
CC(C)OC(=O)N1CCC(n2ncc(COc3ccc(-c4nnnn4C)cc3F)c2C#N)CC1 [Example 20, Isopropyl 4-(5-cyano-4-((2-fluoro-4-(1-methyl-1H-tetrazol-5-yl)phenoxy)methyl)-1H-pyrazol-1-yl)piperidine-1-carboxylate]	41 nM and 144 nM	131 nM	100	59 nM and 90 nM	123			61 nM	107			
CC(C)OC(=O)N1CCC(n2ncc(COc3ccc(-c4nnn(C)n4)cc3F)c2C#N)CC1 [Example 21, Isopropyl 4-(5-cyano-4-((2-fluoro-4-(2-methyl-2H-tetrazol-5-yl)phenoxy)methyl)-1H-pyrazol-1-yl)piperidine-1-carboxylate]	58 nM and 128 nM			44 nM and 32 nM and 57 nM	33			688 nM and 201 nM	100	96%	31% and 34%	
CC(C)OC(=O)N1CCC(n2ncc(C(C)Oc3ccc(S(C)(=O)=O)cc3F)c2C#N)CC1 (stereo not drawn) [Example 27, Isopropyl 4-(5-cyano-4-{1-[2-fluoro-4-(methylsulfonyl)phenoxy]ethyl}-1H-pyrazol-1-yl)piperidine-1-carboxylate]	1640 nM and 528 nM			394 nM	27			1870 nM and 3400 nM	102	100%		
Cc1ncccc1OC(C)c1cnn(C2CCN(C(=O)OC(C)C)CC2)c1C#N (stereo not drawn) [Example 28, Isopropyl 4-(5-cyano-4-{1-[(2-methylpyridin-3-yl)oxy]ethyl}-1H-pyrazol-1-yl)piperidine-1-carboxylate]	> 6100 nM			> 10000 nM				5 nM and 3 nM	27			22
CC(C)OC(=O)N1CCC(n2ncc(CC(C)c3ccc(S(C)(=O)=O)cc3F)c2C#N)CC1 (stereo not drawn) [Example 29, Isopropyl 4-(5-cyano-4-{2-[2-fluoro-4-(methylsulfonyl)phenyl]propyl}-1H-pyrazol-1-yl)piperidine-1-carboxylate]	1550 nM and 3380 nM	3010 nM	100		27						33%	
Cc1ncccc1OCc1cnn(C2CCN(C(=O)OC3(C)CC3)CC2)c1C#N [Example 30, 1-Methylcyclopropyl 4-(5-cyano-4-{[(2-methylpyridin-3-yl)oxy]methyl}-1H-pyrazol-1-yl)piperidine-1-carboxylate]	2020 nM			256 nM and 245 nM	68			136 nM and 166 nM		113% and 76%	60%	
CC(C)OC(=O)N1CCC(n2ncc(COc3c(F)ccc(F)c3F)c2C#N)CC1 [Example 32, Isopropyl 4-{5-cyano-4-[(2,3,6-trifluorophenoxy)methyl]-1H-pyrazol-1-yl}piperidine-1-carboxylate]	514 nM			66 nM and 64 nM and 58 nM	66			281 nM	86		78% and 60%	
CC(C)OC(=O)N1CCC(n2ncc(COc3ccc(-c4cncn4C)cc3F)c2C#N)CC1 [Example 34, Isopropyl 4-(5-cyano-4-{[2-fluoro-4-(1-methyl-1H-imidazol-5-yl)phenoxy]methyl}-1H-pyrazol-1-yl)piperidine-1-carboxylate]	87 nM			55 nM and 70 nM	94			270 nM	102		78%	
Cc1nc(-n2cncn2)ccc1OCc1cnn(C2CCN(C(=O)OC(C)C)CC2)c1C#N [Example 35, Isopropyl 4-[5-cyano-4-({[2-methyl-6-(1H-1,2,4-triazol-1-yl)pyridin-3-yl]oxy}methyl)-1H-pyrazol-1-yl]piperidine-1-carboxylate]	31 nM and 29 nM			18 nM and 31 nM	76			76 nM and 125 nM	83	101%	66%	
Cc1nc(-n2cncn2)ccc1NCc1cnn(C2CCN(C(=O)OC(C)C)CC2)c1C#N [Example 36, Isopropyl 4-[5-cyano-4-({[2-methyl-6-(1H-1,2,4-triazol-1-yl)pyridin-3-yl]amino}methyl)-1H-pyrazol-1-yl]piperidine-1-carboxylate]	521 nM and 1450 nM			281 nM and 256 nM				848 nM	100		51% and 76%	

Reference: patent US20110020460A1, “GPR 119 MODULATORS” (Pfizer Inc., priority 2009, published 2011)
